Earlier results on one molecule are cited in patent US20080226653A1, “Inhibition of Platelet Aggregation” (THE UNIVERSITY OF MANITOBA, priority 2006, published 2008).

For this data set the following is noted: clinical trials (Patrono et al., 1993).

Turning to `CC(=O)Oc1ccccc1C(=O)O` [aspirin, Aspirin], the “efficacy in preventing chronic complications in diabetic patients” value is recorded as “only limited efficacy”.
